Reference: PMC9088016, “Synthesis and biological evaluation of phosphatidylcholines with cinnamic and 3-methoxycinnamic acids with potent antiproliferative activity” (RSC Advances, 2018)
Where two headings read alike, the source gives them in different places.

Columns and labels:
MV4-11 cells [1] = experiment: Antiproliferative assay in vitro (MTT), 72 h; type: cell-based, human; details: leukaemia cells; for IC50: MTT, 72 h exposure, mean ± SD; for Fold lower IC50 than free cinnamic / 3-methoxycinnamic acid: versus corresponding free acid
Method: (§1) Biophenotypic B myelomonocytic leukaemia MV4-11, human lung carcinoma A549, human breast carcinoma MCF-7, human colon carcinoma LoVo, its drug resistant line LoVo/DX, liver carcinoma HepG2, and normal mouse fibroblast BALB/3T3 cells were obtained from the American Type Culture Collection (Rockville, Maryland, USA). All lines are being maintained at the Institute of Immunology and Experimental Therapy, Wrocław, Poland. All cell lines were grown in a humid atmosphere at 37 °C with 5% CO2 and were cultured in media according to the method described before.[18]
(§2) Prior to usage, the compounds were dissolved in DMSO to the concentration of 25 or 50 mM, and subsequently diluted in the culture medium to reach the required concentrations (ranging from 5 to 625 μM).
(§3) Twenty-four hours before addition of the tested compounds, the cells were plated in 96-well plates (Sarstedt, USA) at a density of 10^4 cells per well. All cell lines were exposed to each tested phosphatidylcholines for 72 h. Cells were also exposed to the commercially available drugs cisplatin and doxorubicin. Cell lines were also exposed to the solvent used for the tested compounds (DMSO) at concentrations corresponding to those present in the tested agents' dilutions. For adherent cells, a SRB assay was performed and an MTT assay was performed for leukaemia cells.
This technique was applied for the cytotoxicity screening against leukemia cells. An assay was performed after 72 h exposure to varying concentrations (from 5 to 625 μM) of the tested agents. For the last 3–4 hours of incubation. 20 μL of MTT solution was added to each well (MTT: 3-(4,5-dimethylthiazol-2-yl)-2,5-diphenyl tetrazolium bromide; stock solution: 5 mg mL^−1, Sigma, Germany). The mitochondria of viable cells reduce the pale yellow MTT to a navy blue formazan: the more viable cells are present in a well, the more MTT will be reduced to formazan. When the incubation time was completed, 80 μL of the lysing mixture was added to each well (lysing mixture: 225 mL dimethylformamide, 67.5 g sodium dodecyl sulphate, and 275 mL of distilled water). After 24 h, when formazan crystals had been dissolved, the optical densities of the samples were read with a Multiskan RC photometer at 570 nm wavelength. Each compound in a given concentration was tested in triplicate in each experiment, which was repeated 3–5 times.
(§4) The results of the cytotoxic activity in vitro were expressed as IC50—the concentration of compound (in μM) that inhibits the proliferation rate of the tumor cells by 50% as compared to control untreated cells.

LoVo cells = experiment: Antiproliferative assay in vitro (SRB), 72 h; type: cell-based, human; details: colon cancer cells, 72 h exposure, mean ± SD
Method: as §1, §2, §3
(§5) The cytotoxicity assay was performed after 72 h exposure of the cultured cells to varying concentrations (from 5 to 625 μM) of the tested agents. The cells attached to the plastic were fixed in situ by gently adding 50 μL per well of cold 50% TCA (trichloroacetic acid). The plates were incubated at 4 °C for 1 h and then washed five times with tap water. The background optical density was measured in the wells filled with culture medium, without the cells. The cellular material fixed with TCA was stained with 50 μL of 0.4% sulforhodamine B (SRB) dissolved in 1% acetic acid for 30 min. Unbound dye was removed by rinsing (4×) with 1% acetic acid. The protein-bound dye was extracted with 10 mM unbuffered Tris base for determination of the optical density (at 540 nm) in a computer-interfaced 96-well microtiter plate reader Multiskan RC photometer (Labsystems, Helsinki, Finland). Each compound in the given concentration was tested in triplicate in each experiment, which was repeated 3–5 times.
as §4

MCF-7 cells = experiment: Antiproliferative assay in vitro (SRB), 72 h; type: cell-based, human; details: 72 h exposure, mean ± SD
Method: as §1, §2, §3, §5, §4

HepG2 cells = experiment: Antiproliferative assay in vitro (SRB), 72 h; type: cell-based, human; details: 72 h exposure, mean ± SD
Method: as §1, §2, §3, §5, §4

A549 cells = experiment: Antiproliferative assay in vitro (SRB), 72 h; type: cell-based, human; details: 72 h exposure, mean ± SD, read-out: IC50 A-549
Method: as §1, §2, §3, §5, §4

LoVo/DX cells = experiment: Antiproliferative assay in vitro (SRB), 72 h; type: cell-based, human; details: for IC50: doxorubicin-resistant colon cancer cells, SRB, 72 h exposure, mean ± SD; for Resistance index (RI): doxorubicin-resistant LoVo/DX cell line versus LoVo
Method: as §1, §2, §3, §5, §4

BALB/3T3 cells = experiment: Antiproliferative assay in vitro (SRB), 72 h; type: cell-based, mouse; details: 72 h exposure, mean ± SD
Method: as §1, §2, §3, §5, §4

MV4-11 cells [2] = experiment: Cell cycle analysis (propidium iodide, flow cytometry); type: cell-based, human; details: 50 μM, 72 h
Method: For cell cycle analysis, the cells MV4-11 were treated with the tested compound 5a dissolved in DMSO at a concentration of 50 μM. The cells were treated also only by the DMSO for comparison. After 72 h of incubation, the cells (1 × 10^6) were trypsinized and rinsed with cold PBS. Washed cell pellets were fixed for 24 h in 70% ethanol at −20 °C. After fixation, the cells were washed twice with PBS once again and resuspended in PBS. Next, RNAse (8 μg mL^−1, Fermentas, Germany) was added and the cells were incubated for 1 h at 37 °C. The cells were then stained with propidium iodide (50 μg mL^−1, Sigma Aldrich, Germany) at 4 °C for 30 min and the cellular DNA content was analyzed by flow cytometry using a BD LSRFortessa cytometer (BD Bioscience, San Jose, USA). Compounds at each concentration were tested at least three times independently. The control in the assay was the cells exposed to DMSO at a concentration of 0.05%. Data were analyzed using ModFit 3.2 software (Verity Software, USA).

MV4-11 cells [3] = experiment: Cell death determination by Annexin V and PI staining; type: cell-based, human; details: 50 μM, 72 h
Method: The MV4-11 cells were exposed to the test compound 5a at a concentration of 50 μM for 72 h. After incubation, the cells (2 × 10^5) were washed twice with PBS. APC-Annexin V (BD Pharmingen) was dissolved to the concentration of 1 mg mL^−1 in a binding buffer (HEPES buffer: 10 mM HEPES/NaOH), pH 7.4, 150 mM NaCl, 5 mM KCl, 1 mM MgCl2, 1.8 mM CaCl2, (IIET, Poland) and the cells were suspended in 200 μL of this 1 mg mL^−1 solution (freshly prepared each time). After the incubation in the dark (15 min) at room temperature, the solution (1 mg mL^−1) of propidium iodide (PI) was added prior to the analysis to give a final concentration of 0.1 mg mL^−1. Data acquisition was performed by flow cytometry using a BD LSRFortessa cytometer. Compound 5a was tested at least three times independently. The control in the assay was the cells exposed to DMSO at a concentration of 0.05%. Results were analyzed using Flowing software 2.5.1. […] Double-negative cells were live cells, PI+/Annexin V+ were late apoptotic or necrotic cells, and PI-/Annexin V+ were early apoptotic.

MV4-11 cells [4] = experiment: Determination of the mitochondrial membrane potential (JC-1, flow cytometry); type: cell-based, human; details: 50 μM, 72 h
Method: The loss of mitochondrial membrane potential was estimated using the fluorescent probe JC-1 (Sigma Aldrich, Germany). […] The cells were exposed to the tested compound 5a at a concentration of 50 μM. The MV4-11 cells (5 × 10^5) were washed in phosphate-buffered saline (PBS) containing 2% FBS. The pelleted cells were resuspended in 100 μL of the warm cultured medium with the addition of 10 μL of JC-1 (the final concentration of JC-1 was 3 μg mL^−1) and were then incubated for 30 min at 37 °C. Next, the cells were washed with 1 mL of PBS with 2% FBS and resuspended in 300 μL of PBS with 2% FBS. The mitochondrial membrane potential was analyzed by flow cytometry using BD LSRFortessa cytometry. Compounds at each concentration were tested at least three times independently. The control in the assay was the cells exposed to DMSO at a concentrations of 0.05%. Data were analyzed using Flowing software 2.5.1.

[5] = Homo sapiens, MCF7, breast cancer cells
[6] = Homo sapiens, HepG2, liver cancer cells
[7] = Homo sapiens, A549, lung cancer cells
[8] = Mus musculus, BALB/3T3, normal mice fibroblast cells

IC50 (MV4-11 cells [1]; Homo sapiens, MV4-11) [µM]	IC50 (LoVo cells; Homo sapiens, LoVo) [µM]	IC50 (MCF-7 cells; [5]) [µM]	IC50 (HepG2 cells; [6]) [µM]	IC50 (A549 cells; [7]) [µM]	IC50 (LoVo/DX cells; Homo sapiens, LoVo/DX) [µM]	IC50 (MV4-11 cells [1]) [µM]	Fold lower IC50 than free cinnamic / 3-methoxycinnamic acid (MV4-11 cells [1]) [fold]	IC50 (LoVo cells) [µM]	IC50 (MCF-7 cells; breast cancer cells) [µM]	IC50 (HepG2 cells; liver cancer cells) [µM]	IC50 (A549 cells; lung cancer cells) [µM]	IC50 (LoVo/DX cells) [µM]	Compound	Resistance index (RI) (LoVo/DX cells)	IC50 (BALB/3T3 cells; [8]) [µM]	Ability to overcome drug resistance (LoVo/DX cells; doxorubicin-resistant LoVo/DX cell line, judged from RI)	IC50 (BALB/3T3 cells; normal mice fibroblast cells) [µM]	Effect on cell cycle (MV4-11 cells [2])	Induction of early apoptotic, apoptotic or necrotic cell death (MV4-11 cells [3])	Cells having a significantly lowered mitochondrial membrane potential (Ψm) (MV4-11 cells [4])
88.7 ± 28.9	63 ± 14.4	127 ± 28.3	283 ± 5.2	61.9 ± 3.7	66 ± 8.7	–	–	–	–	–	–	–	CCCCCCCCCCCCCCCC(=O)O[C@H](COC(=O)C=Cc1ccccc1)COP(=O)([O-])OCC[N+](C)(C)C [Compound 10a, 1-Cinnamoyl-2-palmitoyl-sn-glycero-3-phosphocholine]	1.05	208 ± 30.7	–	–	–	–	–
–	–	–	–	–	–	44.3 ± 5.1	8	112 ± 26.3	104 ± 4.4	290 ± 19.4	287.1 ± 2	238.2 ± 2.3	1-Cinnamoyl-2-hydroxy-sn-glycero-3-phosphocholine [Compound 9a]	2.13	–	moderate ability to overcome drug resistance	160 ± 45.7	–	–	–
359 ± 105	284 ± 26.6	480 ± 46.2	> 625	> 625	> 625	–	–	–	–	–	–	–	O=C(O)/C=C/c1ccccc1 [Compound 1a, Cinnamic acid]	–	> 625	–	–	–	–	–
43.2 ± 9.9	52.3 ± 5	64.6 ± 3.4	228 ± 30.6	56.3 ± 0.4	56.3 ± 0.8	–	–	–	–	–	–	–	CCCCCCCCCCCCCCCC(=O)OC[C@H](COP(=O)([O-])OCC[N+](C)(C)C)OC(=O)C=Cc1ccccc1 [Compound 5a, 1-Palmitoyl-2-cinnamoyl-sn-glycero-3-phosphocholine]	1.08	114 ± 36.6	–	–	arrested cell cycle in the G2/M phase	lack of induction	about 45%
–	–	–	–	–	–	30.5 ± 8.2	11	85.1 ± 11.9	84.1 ± 7.4	272 ± 33.1	259 ± 16.7	160 ± 61.7	1-(3-Methoxycinnamoyl)-2-hydroxy-sn-glycero-3-phosphocholine [Compound 9b]	1.88	–	–	154 ± 66.4	–	–	–
165 ± 25.4	210 ± 22.2	307 ± 12.5	83.6 ± 45.1	286 ± 5.3	32.1 ± 16.9	–	–	–	–	–	–	–	COc1cccc(C=CC(=O)OC[C@H](COP(=O)([O-])OCC[N+](C)(C)C)OC(=O)C=Cc2cccc(OC)c2)c1 [Compound 3b, 1,2-Di(3-methoxycinnamoyl)-sn-glycero-3-phosphocholine]	0.15	297 ± 56.4	–	–	–	–	–
–	–	–	–	–	–	–	–	–	–	–	–	–	COc1cccc2c1C(=O)c1c(O)c3c(c(O)c1C2=O)C[C@@](O)(C(=O)CO)C[C@@H]3O[C@H]1C[C@H](N)[C@H](O)[C@H](C)O1 [Doxorubicin, doxorubicin, reference compound]	55.81	–	–	–	–	–	–
236 ± 46.3	211.6 ± 1.3	214 ± 89.6	296 ± 13.2	280 ± 8.8	254 ± 11.6	–	–	–	–	–	–	–	CCCCCCCCCCCCCCCC(=O)O[C@H](COC(=O)C=Cc1cccc(OC)c1)COP(=O)([O-])OCC[N+](C)(C)C [Compound 10b, 1-3-Methoxycinnamoyl-2-palmitoyl-sn-glycero-3-phosphocholine]	1.2	291 ± 5.6	–	–	–	–	–
339 ± 111	233 ± 15.5	420 ± 56.2	> 625	> 625	> 625	–	–	–	–	–	–	–	COc1cccc(C=CC(=O)O)c1 [Compound 1b, 3-methoxycinnamic acid]	–	506 ± 67.7	–	–	–	–	–
83.2 ± 4	70.4 ± 5.4	224 ± 9.5	295 ± 11.4	193 ± 27.4	69.9 ± 6.3	–	–	–	–	–	–	–	CCCCCCCCCCCCCCCC(=O)OC[C@H](COP(=O)([O-])OCC[N+](C)(C)C)OC(=O)C=Cc1cccc(OC)c1 [Compound 5b, 1-Palmitoyl-2-3-methoxycinnamoyl-sn-glycero-3-phosphocholine]	0.99	257 ± 52.4	–	–	–	–	–
215 ± 51.9	200 ± 49.7	321 ± 11.1	> 625	> 625	329 ± 12.5	–	–	–	–	–	–	–	C[N+](C)(C)CCOP(=O)([O-])OC[C@@H](COC(=O)C=Cc1ccccc1)OC(=O)C=Cc1ccccc1 [Compound 3a, 1,2-Dicinnamoyl-sn-glycero-3-phosphocholine]	1.65	> 625	–	–	–	–	–

Compound	IC50 (MV4-11 cells [1]; Homo sapiens, MV4-11) [µM]	IC50 (LoVo cells; Homo sapiens, LoVo) [µM]	IC50 (MCF-7 cells; [5]) [µM]	IC50 (HepG2 cells; [6]) [µM]	IC50 (A549 cells; [7]) [µM]	IC50 (LoVo/DX cells; Homo sapiens, LoVo/DX) [µM]	IC50 (MV4-11 cells [1]) [µM]	Fold lower IC50 than free cinnamic / 3-methoxycinnamic acid (MV4-11 cells [1]) [fold]	IC50 (LoVo cells) [µM]	IC50 (MCF-7 cells; breast cancer cells) [µM]	IC50 (HepG2 cells; liver cancer cells) [µM]	IC50 (A549 cells; lung cancer cells) [µM]	IC50 (LoVo/DX cells) [µM]	Resistance index (RI) (LoVo/DX cells)	IC50 (BALB/3T3 cells; [8]) [µM]	Ability to overcome drug resistance (LoVo/DX cells; doxorubicin-resistant LoVo/DX cell line, judged from RI)	IC50 (BALB/3T3 cells; normal mice fibroblast cells) [µM]	Effect on cell cycle (MV4-11 cells [2])	Induction of early apoptotic, apoptotic or necrotic cell death (MV4-11 cells [3])	Cells having a significantly lowered mitochondrial membrane potential (Ψm) (MV4-11 cells [4])
N.N.[Cl][Pt][Cl] [Cisplatin, cisplatin, reference compound]	–	–	–	–	–	–	1.3 ± 0.47	–	2.56 ± 0.4	8.1 ± 0.03	2.38 ± 0.64	8.6 ± 0.7	3.17 ± 0.2	–	–	–	4.2 ± 1.1	–	–	–
